Measured values published in patent US20260327211A1, “MODULATORS OF A POTASSIUM CHANNEL AND OF TRPV1 CHANNEL AND USES THEREOF” (Bsense Bio Therapeutics Ltd., priority 2023, published 2026).
Read-outs that look alike come from different tables or passages of the source.

Key:
[1] = test system: rats; assay: Core body temperature; assay type: in vivo, rat
Protocol: Core Body Temperature: Following two days of habituation to the measurement method, the body temperature was measured on study day for baseline values and then again post-dosing in the time points indicated in the figure. Body temperature was measured using a probe gently inserted into the animal anus using a corn oil lubricant (C8267, Sigma-Aldrich, IL).

[2] = CYP inhibition / time-dependent inhibition, CYP3A4_Midazolam; assay type: in vitro ADME, human; settings: human, liver microsomes, role: inhibitor
Protocol: (§1) The time-dependent inactivation potency of the test compound to CYP enzymatic activities was assessed by the pre-incubation of the human liver microsomes with the test compound in the presence and absence of NADPH, followed by the incubation with the discrete marker substrates, as follows.
(§2) Pre-incubation with human liver microsomes (HLMs): The TDI inactivation potency on CYP enzymatic activities was evaluated through pre-incubation with HLMs (Corning). A liver microsome mixture at a concentration of 0.1 mg/mL, and the test compound at 8 different concentrations (0, 0.05, 0.165, 0.5, 1.65, 5.0, 16.5, or 50.0 μM) was warmed at 37° C. for 10 minutes. Concurrently, a set of known time-dependent inactivators was also prepared in duplicate for comparison. Following this, NADPH (1.0 mM) was added to one group (Group 1), and an equal volume of potassium phosphate buffer to the second group (Group 2), marking the beginning of a 30-minute pre-incubation at 37° C.
(§3) Incubation: After pre-incubation, the marker substrate, or marker substrate plus NADPH was added to the mixture, thereby initiating the incubation. The duration of the incubation was dependent on the type of CYP isoform being evaluated. For example, with the CYP3A isoform, the mixture was incubated over 3 minutes utilizing midazolam as the marker substrate (2.0 μM), verapamil as the standard inactivator (3.5 μM).
(§4) Termination of Reaction: Following the incubation, ice-cooled acetonitrile containing the internal standard (IS) was added to halt the reactions. Metabolites generated from the marker substrates were then measured via LC-MS/MS, assessed based on peak area ratios of the analyte to IS.

[3] = molecular target: T1, kappa opioid receptors (Homo sapiens, UniProt P41145); assay: Functional selectivity panel, kappa opioid receptors; assay type: biochemical
T1 construct: Eurofins DiscoverX, USA
T1 sequence (P41145 whole entry): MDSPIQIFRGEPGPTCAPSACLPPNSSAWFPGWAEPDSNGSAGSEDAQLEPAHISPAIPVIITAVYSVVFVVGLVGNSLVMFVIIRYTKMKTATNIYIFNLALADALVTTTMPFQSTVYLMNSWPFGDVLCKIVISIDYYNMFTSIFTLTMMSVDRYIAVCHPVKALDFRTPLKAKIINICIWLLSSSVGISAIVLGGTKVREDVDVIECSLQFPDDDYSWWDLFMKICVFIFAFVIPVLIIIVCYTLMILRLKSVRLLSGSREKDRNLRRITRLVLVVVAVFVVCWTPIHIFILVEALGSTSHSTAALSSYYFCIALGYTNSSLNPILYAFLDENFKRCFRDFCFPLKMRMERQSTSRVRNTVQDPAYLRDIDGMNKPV
Protocol: A broad panel of 78 recombinant targets was tested for pharmacologic activity in vitro through a variety of functional assays (Eurofins DiscoverX, USA), as part of the National Institute of Neurological Disorders and Stroke (NINDS) Preclinical Screening Platform for Pain (PSPP) program. The biological targets for the in vitro profiling have been selected based on avoiding opioid receptor stimulation and targets known to be associated with adverse events or targeted by drugs of abuse. […] For each test, a reference compound was evaluated at the target of interest as a positive control.

[4] = molecular target: T2, CYP2B6 (Homo sapiens, UniProt P20813); assay: CYP inhibition / time-dependent inhibition, CYP2B6_Bupropion; assay type: in vitro ADME; settings: role: inhibitor
T2 construct: pre-incubation of the human liver microsomes with the test compound; tissue Corning; host or cells: human liver microsomes
T2 sequence (P20813 1-491): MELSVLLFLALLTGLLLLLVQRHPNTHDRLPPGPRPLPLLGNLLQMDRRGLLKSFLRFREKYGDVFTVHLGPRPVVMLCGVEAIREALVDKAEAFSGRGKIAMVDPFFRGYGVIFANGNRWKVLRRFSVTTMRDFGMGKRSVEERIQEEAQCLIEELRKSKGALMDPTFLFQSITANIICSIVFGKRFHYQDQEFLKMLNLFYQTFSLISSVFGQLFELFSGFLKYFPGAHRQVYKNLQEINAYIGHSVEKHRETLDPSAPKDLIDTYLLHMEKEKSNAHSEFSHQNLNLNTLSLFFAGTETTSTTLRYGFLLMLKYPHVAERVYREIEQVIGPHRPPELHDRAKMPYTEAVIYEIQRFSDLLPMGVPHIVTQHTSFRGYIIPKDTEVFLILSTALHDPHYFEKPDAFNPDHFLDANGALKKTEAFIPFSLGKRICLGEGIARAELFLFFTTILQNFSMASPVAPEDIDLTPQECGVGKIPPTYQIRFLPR
Protocol: Pre-incubation with human liver microsomes (HLMs): The TDI inactivation potency on CYP enzymatic activities was evaluated through pre-incubation with HLMs (Corning). […] Concurrently, a set of known time-dependent inactivators was also prepared in duplicate for comparison. Following this, NADPH (1.0 mM) was added to one group (Group 1), and an equal volume of potassium phosphate buffer to the second group (Group 2), marking the beginning of a 30-minute pre-incubation at 37° C.

[5] = molecular target: T3, CYP2C9 (Homo sapiens, UniProt P11712); assay: CYP inhibition / time-dependent inhibition, CYP2C9_Diclofenac; assay type: in vitro ADME; settings: role: inhibitor
T3 construct: pre-incubation of the human liver microsomes with the test compound; tissue Corning; host or cells: human liver microsomes
T3 sequence (P11712 whole entry): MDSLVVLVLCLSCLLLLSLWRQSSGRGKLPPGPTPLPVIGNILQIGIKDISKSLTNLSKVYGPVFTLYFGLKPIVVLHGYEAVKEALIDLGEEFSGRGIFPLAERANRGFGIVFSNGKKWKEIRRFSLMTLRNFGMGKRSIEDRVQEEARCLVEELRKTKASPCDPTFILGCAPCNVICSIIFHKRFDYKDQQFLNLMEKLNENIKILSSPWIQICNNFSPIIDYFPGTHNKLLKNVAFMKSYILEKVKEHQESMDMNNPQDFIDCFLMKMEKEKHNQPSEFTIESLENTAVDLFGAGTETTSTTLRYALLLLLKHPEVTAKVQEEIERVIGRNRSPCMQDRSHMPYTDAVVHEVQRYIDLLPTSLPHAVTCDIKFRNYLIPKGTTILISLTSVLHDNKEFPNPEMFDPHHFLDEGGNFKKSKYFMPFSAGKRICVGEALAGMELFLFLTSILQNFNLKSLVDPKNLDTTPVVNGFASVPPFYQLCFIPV
Protocol: as §1, §2, §3, §4

| SMILES | Core body temperature ([1]; 20 and 50 mg/kg PO) | Core body temperature ([1]; up to 300 mg/kg, 1-24 hours post-dose) | IC50 ([2]; (+)NADPH pre-incubation, substrate midazolam 2.0 μM, read-out: IC50 (+)NADPH CYP3A4_Midazolam) | IC50 ([2]; (−)NADPH pre-incubation, substrate midazolam 2.0 μM, read-out: IC50 (−)NADPH CYP3A4_Midazolam) | EC50 ([3]; PAM) | IC50 ([4]; (+)NADPH pre-incubation, substrate bupropion, read-out: IC50 (+)NADPH CYP2B6_Bupropion) | IC50 ([4]; (−)NADPH pre-incubation, substrate bupropion, read-out: IC50 (−)NADPH CYP2B6_Bupropion) | IC50 ([5]; (+)NADPH pre-incubation, substrate diclofenac, read-out: IC50 (+)NADPH CYP2C9_Diclofenac) | IC50 ([5]; (−)NADPH pre-incubation, substrate diclofenac, read-out: IC50 (−)NADPH CYP2C9_Diclofenac) | Core body temperature ([1]; up to 300 mg/kg oral) | IC50 ([2]; Table 9, substrate midazolam, read-out: CYP inhibition IC50 CYP3A-Midazolam) | Effect on Opioid kappa ([3]; up to 10 micromolar) | IC50 ([4]; Table 9, read-out: CYP inhibition IC50 CYP2B6) | IC50 ([5]; Table 9, read-out: CYP inhibition IC50 CYP2C9) |
| --- | --- | --- | --- | --- | --- | --- | --- | --- | --- | --- | --- | --- | --- | --- |
| O=C(Cc1cncc(-n2cc(Cl)c3cc(Cl)cc(Cl)c32)c1)N[C@@H]1COC[C@H]1O [Compound 661] | no significant change in core body temperature | no effects on core body temperature | 19.5 µM | 30.5 µM | 7 µM | 8.91 µM | 11 µM | 13 µM | 14.8 µM | – | – | – | – | – |
| O=C(Cc1nccc(-n2cc(Cl)c3cc(Cl)cc(Cl)c32)n1)NC1COCC1O (centres unmarked) [Compound 760] | – | – | – | – | – | – | – | – | – | displayed safety potential at up to 300 mg/kg oral dosing | > 50 µM | no effect | 34.9 µM | 44.3 µM |
